# From US8293738B2, “Indazole inhibitors of kinase” (Abbott Laboratories, priority 2010, dated 2012)
# Columns and labels:
# [1] = molecular target: T1, Aurora B (Homo sapiens, UniProt Q96GD4); experiment: Aurora B enzyme assay (time-resolved fluorescence, histone H3 peptide); assay type: biochemical; conditions: 1 mM ATP, 1 hour
# T1 construct: Active Aurora B enzyme (recombinant residues 1-344)
# Method: To determine Aurora B activity of representative compounds of the invention, Active Aurora B enzyme (recombinant residues 1-344) and INCENP (recombinant GST fusion protein (Upstate)) were incubated in wells of a 384 well plate with biotinylted histone H3 peptide residues 1-21 (Upstate), 1 mM ATP, and various concentrations of inhibitors in a HEPES buffer, pH 7.4 containing MgCl2, sodium othrovanadate, and Triton X-100. After 1 hour, the reaction was stopped with EDTA and anti-phospho-histone H3 Europium Cryptate (Cis-Bio) and SA-APC (Phycolink, Prozyme) were added to detect the phosphopeptide. The amount of phosphorylation was determined by the time-resolved fluorescence ratio of signals at 665 nm and 615 nm. The IC50's were calculated by an exponential fit of the inhibition values with the inhibitor concentrations using Assay Explorer software.
# [2] = molecular target: KDR (Homo sapiens, UniProt P35968); experiment: KDR HTRF in vitro kinase assay; assay type: biochemical; parameters: purified enzyme (His6-KDR 789-1354, MW 63 kD); conditions: 1 mM ATP, 60 minutes
# Chain of KDR (P35968 789-1354): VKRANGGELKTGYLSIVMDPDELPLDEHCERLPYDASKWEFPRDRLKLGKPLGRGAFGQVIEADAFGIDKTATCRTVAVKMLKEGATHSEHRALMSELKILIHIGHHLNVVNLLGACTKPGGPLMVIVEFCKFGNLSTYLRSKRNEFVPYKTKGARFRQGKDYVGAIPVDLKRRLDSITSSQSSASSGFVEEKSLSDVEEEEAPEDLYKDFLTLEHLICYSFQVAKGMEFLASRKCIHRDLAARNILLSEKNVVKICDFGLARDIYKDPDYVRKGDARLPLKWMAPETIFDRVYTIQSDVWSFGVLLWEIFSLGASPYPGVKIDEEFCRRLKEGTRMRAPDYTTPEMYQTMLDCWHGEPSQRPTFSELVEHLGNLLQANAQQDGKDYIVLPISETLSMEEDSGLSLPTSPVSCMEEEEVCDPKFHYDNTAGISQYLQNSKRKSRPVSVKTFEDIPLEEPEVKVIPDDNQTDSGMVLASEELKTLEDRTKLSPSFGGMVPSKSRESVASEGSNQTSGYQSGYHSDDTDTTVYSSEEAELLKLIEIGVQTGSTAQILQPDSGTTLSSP
# Method: To determine the activity of the various kinases, a homogenous time-resolved fluorescence (HTRF) in vitro kinase assay was used. (Mathis, G., HTRF(R) Technology. J Biomol Screen, 1999. 4(6): p. 309-314; Alfred J. Kolb, Paul V. Kaplita, David J. Hayes, Young-Whan Park, Christine Pernell, John S. Major and Gerard Mathis, Drug Discovery Today, 1998, 3, 333-342.)
# For example for KDR, 7 ng/well of purified enzyme (His6-KDR 789-1354, MW 63 kD) was mixed with 0.5 μM N-biotinylated substrate (Biotin-Ahx-AEEEYFFLA-amide (SEQ. ID. 1)), various concentrations of inhibitor in reaction buffer (50 mM HEPES, pH 7.1, mM MgCl2, 2 mM MnCl2, 0.1% BSA and 1 mM DTT, […] final volume), ATP (1 mM final conc.) in a black 384-well plate. After 60 minutes incubation at room temperature, the reaction was quenched by addition of a buffered EDTA solution (final approximate concentrations: 30 mM EDTA, 0.1% BSA, 0.1% Triton X-100 and 0.24M KF) and a solution of revelation agents (to give 0.084 ng/well streptavidin-XL-665 (Cis-Bio) and 6.5 ng/well antiphsophotyrosine mAb PT66-K Europium kryptate) was added to the reaction mixture. The quenched reaction was allowed to stand at room temperature for 3 hours and was then read in a time-resolved fluorescence detector (InVision, Perkin-Elmer) at 620 nm and 665 nm sequentially with excitation. The ratio between the signal of 620 nm and 665 nm was used in the calculation of the IC50.
# [3] = molecular target: T2, Aurora A (Homo sapiens, UniProt O14965); experiment: Aurora A enzyme assay (time-resolved fluorescence, STK substrate-2); assay type: biochemical; conditions: 1 mM ATP, 1 hour
# T2 sequence (O14965 1-403): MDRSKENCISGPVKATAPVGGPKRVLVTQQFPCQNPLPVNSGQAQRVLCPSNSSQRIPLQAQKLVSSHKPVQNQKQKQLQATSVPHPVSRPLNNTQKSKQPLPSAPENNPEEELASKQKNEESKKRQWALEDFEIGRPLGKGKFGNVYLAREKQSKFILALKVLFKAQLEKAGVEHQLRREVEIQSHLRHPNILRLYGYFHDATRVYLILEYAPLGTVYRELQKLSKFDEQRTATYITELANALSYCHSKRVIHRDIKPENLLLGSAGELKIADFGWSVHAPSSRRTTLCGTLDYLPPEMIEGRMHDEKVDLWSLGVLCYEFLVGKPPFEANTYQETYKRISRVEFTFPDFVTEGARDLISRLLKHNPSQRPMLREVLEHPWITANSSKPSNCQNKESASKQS
# Method: To determine Aurora A and C activity of representative compounds of the invention, Active Aurora A or C enzyme was incubated in wells of a 384 well plate with biotinylated STK substrate-2 (Upstate), 1 mM ATP, and various concentrations of inhibitors in a Hepes buffer, pH 7.4 containing MgCl2, sodium othrovanadate, and Triton X-100. After 1 hour, the reaction was stopped with EDTA and anti-phospho-STK antibody Europium Cryptate (Upstate) and SA-XL665 (Upstate) were added to detect the phosphopeptide. The amount of phosphorylation was determined by the time-resolved fluorescence ratio of signals at 665 nm and 615 nm. The IC50s were calculated by an exponential fit of the inhibition values with the inhibitor concentrations using Assay Explorer software.
# [4] = system: H1299 cells (Human Non-Small Cell Lung Carcinoma); experiment: Induction of polyploidy in H1299 cells, high content analysis; assay type: cell-based; conditions: NCI-H1299 cells, 48 hours, polyploid = nuclear area >750μ2, read-out: Polyploid HCA IC50
# Method: To determine the induction of polyploidy in H1299 cells (Human Non-Small Cell Lung Carcinoma), NCI-H1299 were seeded (4K/well) into 96-well culture plates (tissue culture grade, black, flat-clear bottom) and incubated overnight to produce cell-to-plate adherance Inhibitors at varying concentrations were added into duplicate wells containing cells and culture media (RPMI 1640, 10% fetal calf serum) and incubated at 37 C for 48 hours. The plates were then washed with PBS and the adherent cells fixed by incubating with 3% formalin for 1 hour. After washing four times with PBS, the cells were then stained with Hoechst and subjected to fluorescent (3601/460e) microscopic high content analysis to determine the effect of inhibitors on nuclear size. Polyploid cells (>4N) were defined as those having nuclear area >750μ2. […]
# T1 sequence (Q96GD4 whole entry, the tested form may be a part): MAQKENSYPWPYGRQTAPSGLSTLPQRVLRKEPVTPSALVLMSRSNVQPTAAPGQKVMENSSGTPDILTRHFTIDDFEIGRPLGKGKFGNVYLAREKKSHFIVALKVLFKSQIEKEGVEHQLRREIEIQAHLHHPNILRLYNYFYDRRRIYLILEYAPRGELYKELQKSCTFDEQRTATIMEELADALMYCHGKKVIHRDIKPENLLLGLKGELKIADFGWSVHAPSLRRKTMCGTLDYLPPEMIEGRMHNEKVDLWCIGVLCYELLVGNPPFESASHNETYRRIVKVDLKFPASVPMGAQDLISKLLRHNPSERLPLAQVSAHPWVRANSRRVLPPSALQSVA
# T1 sequence (Q9NQS7 826-918 partner limits assumed): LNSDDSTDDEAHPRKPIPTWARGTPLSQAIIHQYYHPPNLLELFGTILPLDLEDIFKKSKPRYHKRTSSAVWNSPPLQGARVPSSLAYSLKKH
Compound,IC50 [1] [µM],IC50 [2] [µM],IC50 [3] [µM],IC50 [4] [µM]
"Cc1cccc(NC(=O)Nc2ccc(-c3ccc4c(-c5cnn(CCN6CCOCC6)c5)n[nH]c4c3)cc2)c1 [Example 5, N-(3-methylphenyl)-N′-(4-{3-[1-(2-morpholin-4-ylethyl)-1H-pyrazol-4-yl]-1H-indazol-6-yl}phenyl)urea]",0.194,0.0317,> 12.5,–
"O=C(Nc1ccc(-c2ccc3c(-c4cnn(CCO)c4)n[nH]c3c2)cc1)Nc1cccc(C(F)(F)F)c1 [Example 11, N-(4-{3-[1-(2-hydroxyethyl)-1H-pyrazol-4-yl]-1H-indazol-6-yl}phenyl)-N′-[3-(trifluoromethyl)phenyl]urea]",0.136,0.0207,> 12.5,–
"CCCn1cc(-c2n[nH]c3cc(-c4ccc(NC(=O)Nc5cccc(F)c5)cc4)ccc23)cn1 [Example 13, N-(3-fluorophenyl)-N′-{4-[3-(1-propyl-1H-pyrazol-4-yl)-1H-indazol-6-yl]phenyl}urea]",0.0864,0.217,10.9,–
"CC(C)(O)Cn1cc(-c2n[nH]c3cc(-c4ccc(NC(=O)Nc5cccc(F)c5)cc4)ccc23)cn1 [Example 15, N-(3-fluorophenyl)-N′-(4-{3-[1-(2-hydroxy-2-methylpropyl)-1H-pyrazol-4-yl]-1H-indazol-6-yl}phenyl)urea]",0.142,6.69,> 12.5,–
"Cc1cccc(NC(=O)Nc2cccc(-c3ccc4c(-c5cnn(C)c5)n[nH]c4c3)c2)c1 [Example 17, N-(3-methylphenyl)-N′-{3-[3-(1-methyl-1H-pyrazol-4-yl)-1H-indazol-6-yl]phenyl}urea]",1.32,0.0488,> 12.5,–
"Cn1cc(-c2n[nH]c3cc(-c4ccc(NC(=O)Nc5cccc(C(F)(F)F)c5)cc4)ccc23)cn1 [Example 18, N-{4-[3-(1-methyl-1H-pyrazol-4-yl)-1H-indazol-6-yl]phenyl}-N′-[3-(trifluoromethyl)phenyl]urea]",0.156,0.0237,> 12.5,–
"Cn1cc(-c2n[nH]c3cc(-c4ccc(CNC(=O)Nc5cccc(F)c5)cc4)ccc23)cn1 [Example 24, N-(3-fluorophenyl)-N′-{4-[3-(1-methyl-1H-pyrazol-4-yl)-1H-indazol-6-yl]benzyl}urea]",1.03,> 12.5,> 12.5,–
"Cn1cc(-c2n[nH]c3cc(-c4ccc(NC(=O)Nc5cccc(OC(F)(F)F)c5)cc4)ccc23)cn1 [Example 25, N-{4-[3-(1-methyl-1H-pyrazol-4-yl)-1H-indazol-6-yl]phenyl}-N′-[3-(trifluoromethoxy)phenyl]urea]",0.493,0.0302,> 12.5,–
"Cn1cc(-c2n[nH]c3cc(-c4ccc(NC(=O)Nc5ccccc5OC(F)(F)F)cc4)ccc23)cn1 [Example 27, N-{4-[3-(1-methyl-1H-pyrazol-4-yl)-1H-indazol-6-yl]phenyl}-N′-[2-(trifluoromethoxy)phenyl]urea]",0.773,0.0976,> 12.5,–
"Cn1cc(-c2n[nH]c3cc(-c4ccc(NC(=O)Nc5ccc(OC(F)(F)F)cc5)cc4)ccc23)cn1 [Example 28, N-{4-[3-(1-methyl-1H-pyrazol-4-yl)-1H-indazol-6-yl]phenyl}-N′-[4-(trifluoromethoxy)phenyl]urea]",0.871,0.038,> 12.5,–
"Cn1cc(-c2n[nH]c3cc(-c4ccc(CNC(=O)c5cccc(F)c5)cc4)ccc23)cn1 [Example 31, 3-fluoro-N-{4-[3-(1-methyl-1H-pyrazol-4-yl)-1H-indazol-6-yl]benzyl}benzamide]",0.142,1.79,5.21,–
"Cc1cccc(NC(=O)Nc2cccc(-c3ccc4c(-c5cccnc5)n[nH]c4c3)c2)c1 [Example 34, N-(3-methylphenyl)-N′-[3-(3-pyridin-3-yl-1H-indazol-6-yl)phenyl]urea]",> 12.5,0.278,> 12.5,–

# Now from value to molecule:
IC50 [1] [µM],IC50 [2] [µM],IC50 [3] [µM],IC50 [4] [µM],Compound
0.207,0.291,1.46,–,"Cc1cccc(NC(=O)Nc2ccc(-c3ccc4c(-c5ccc[nH]5)n[nH]c4c3)cc2)c1 [Example 4, N-(3-methylphenyl)-N′-{4-[3-(1H-pyrrol-2-yl)-1H-indazol-6-yl]phenyl}urea]"
> 12.5,12.3,> 12.5,–,"Cc1cccc(NC(=O)Nc2ccc(-c3ccc4c(-c5ccsc5)n[nH]c4c3)cc2)c1 [Example 7, N-(3-methylphenyl)-N′-[4-(3-thien-3-yl-1H-indazol-6-yl)phenyl]urea]"
0.0233,0.525,3.4,0.012,"O=C(Nc1ccc(-c2ccc3c(-c4ccn[nH]4)n[nH]c3c2)cc1)Nc1cccc(F)c1 [Example 8, N-(3-fluorophenyl)-N′-{4-[3-(1H-pyrazol-5-yl)-1H-indazol-6-yl]phenyl}urea]"
> 12.5,> 12.5,> 12.5,–,"Cn1nccc1-c1n[nH]c2cc(-c3ccc(NC(=O)Nc4cccc(F)c4)cc3)ccc12 [Example 14, N-(3-fluorophenyl)-N′-{4-[3-(1-methyl-1H-pyrazol-5-yl)-1H-indazol-6-yl]phenyl}urea]"
1.92,3.61,> 12.5,–,"Cc1cccc(NC(=O)Nc2ccc(-c3ccc4c(-c5ccccc5)n[nH]c4c3)cc2)c1 [Example 32, N-(3-methylphenyl)-N′-[4-(3-phenyl-1H-indazol-6-yl)phenyl]urea]"
0.12,0.584,> 12.5,–,"Cc1cccc(NC(=O)Nc2ccc(-c3ccc4c(-c5cccnc5)n[nH]c4c3)cc2)c1 [Example 33, N-(3-methylphenyl)-N′-[4-(3-pyridin-3-yl-1H-indazol-6-yl)phenyl]urea]"
0.569,0.558,> 12.5,–,"Cc1cccc(NC(=O)Nc2ccc(-c3ccc4c(-c5cscn5)n[nH]c4c3)cc2)c1 [Example 35, N-(3-methylphenyl)-N′-{4-[3-(1,3-thiazol-4-yl)-1H-indazol-6-yl]phenyl}urea]"
> 12.5,0.303,> 12.5,–,"Cc1cccc(NC(=O)Nc2ccc(-c3ccc4c(-c5cc6ccccc6[nH]5)n[nH]c4c3)cc2)c1 [Example 36, N-{4-[3-(1H-indol-2-yl)-1H-indazol-6-yl]phenyl}-N′-(3-methylphenyl)urea]"
